Data taken from ChEMBL document CHEMBL5724914, “Linking interpersonal differences in gut microbiota composition and drug biotransformation activity” (2024).

Key:
[1] = human gut metagenome, 24 h, 2 µM
[2] = human gut metagenome, 24 h, 2 µM; remark: listed apart in the source
[3] = human gut metagenome, 24 h, 2 µM; remark: listed apart in the source
[4] = The drug is tested on WLS-310 corresponding to human gut metagenome with ENA study accession number: PRJEB37062 and ENA sample accession number: ERS12561785 for biotransformation under anaerobic condition. The drug concentrations were measured over 9 timepoints collected between 0 and 24 hours of incubation by liquid-chromatography-coupled mass spectrometry (LC–MS); conditions: 2 µM
[5] = human gut metagenome, 24 h, 2 µM; remark: listed apart in the source
[6] = The drug is tested on Z-022 corresponding to mouse gut metagenome with ENA study accession number: PRJEB37062 and ENA sample accession number: ERS12561821 for biotransformation under anaerobic condition. The drug concentrations were measured over 9 timepoints collected between 0 and 24 hours of incubation by liquid-chromatography-coupled mass spectrometry (LC–MS); conditions: 2 µM
[7] = The drug is tested on WLS-370 corresponding to human gut metagenome with ENA study accession number: PRJEB37062 and ENA sample accession number: ERS12561793 for biotransformation under anaerobic condition. The drug concentrations were measured over 9 timepoints collected between 0 and 24 hours of incubation by liquid-chromatography-coupled mass spectrometry (LC–MS); conditions: 2 µM
[8] = The drug is tested on WLS-069 corresponding to human gut metagenome with ENA study accession number: PRJEB37062 and ENA sample accession number: ERS12561748 for biotransformation under anaerobic condition. The drug concentrations were measured over 9 timepoints collected between 0 and 24 hours of incubation by liquid-chromatography-coupled mass spectrometry (LC–MS); conditions: 2 µM
[9] = human gut metagenome, 24 h, 2 µM; remark: listed apart in the source
[10] = The drug is tested on WLS-038 corresponding to human gut metagenome with ENA study accession number: PRJEB37062 and ENA sample accession number: ERS12561745 for biotransformation under anaerobic condition. The drug concentrations were measured over 9 timepoints collected between 0 and 24 hours of incubation by liquid-chromatography-coupled mass spectrometry (LC–MS); conditions: 2 µM
[11] = The drug is tested on WLS-039 corresponding to human gut metagenome with ENA study accession number: PRJEB37062 and ENA sample accession number: ERS12561746 for biotransformation under anaerobic condition. The drug concentrations were measured over 9 timepoints collected between 0 and 24 hours of incubation by liquid-chromatography-coupled mass spectrometry (LC–MS); conditions: 2 µM
[12] = human gut metagenome, 24 h, 2 µM; remark: listed apart in the source
[13] = human gut metagenome, 24 h, 2 µM; remark: listed apart in the source
[14] = human gut metagenome, 24 h, 2 µM; remark: listed apart in the source
[15] = The drug is tested on WLS-010 corresponding to human gut metagenome with ENA study accession number: PRJEB37062 and ENA sample accession number: ERS12561743 for biotransformation under anaerobic condition. The drug concentrations were measured over 9 timepoints collected between 0 and 24 hours of incubation by liquid-chromatography-coupled mass spectrometry (LC–MS); conditions: 2 µM
[16] = human gut metagenome, 24 h, 2 µM; remark: listed apart in the source
[17] = human gut metagenome, 24 h, 2 µM; remark: listed apart in the source
[18] = human gut metagenome, 24 h, 2 µM; remark: listed apart in the source
[19] = The drug is tested on WLS-350 corresponding to human gut metagenome with ENA study accession number: PRJEB37062 and ENA sample accession number: ERS12561789 for biotransformation under anaerobic condition. The drug concentrations were measured over 9 timepoints collected between 0 and 24 hours of incubation by liquid-chromatography-coupled mass spectrometry (LC–MS); conditions: 2 µM
Also: call rule not given here.

Bacterial Biotransformation [1] | Bacterial Biotransformation [2] | Bacterial Biotransformation [3] | Bacterial Biotransformation [4] | Bacterial Biotransformation [5] | Bacterial Biotransformation [7] | Bacterial Biotransformation [8] | Bacterial Biotransformation [9] | Bacterial Biotransformation [10] | Bacterial Biotransformation [11] | Bacterial Biotransformation [12] | Bacterial Biotransformation [13] | Bacterial Biotransformation [14] | Bacterial Biotransformation [15] | Bacterial Biotransformation [16] | Bacterial Biotransformation [17] | Bacterial Biotransformation [18] | Bacterial Biotransformation [19] | SMILES | Bacterial Biotransformation [6]
Compound metabolized | Compound metabolized | Compound metabolized | Compound metabolized | Compound metabolized | Compound metabolized | Compound metabolized | Compound metabolized | Compound metabolized | Compound metabolized | Compound metabolized | Compound metabolized | Compound metabolized | Compound metabolized | Compound metabolized | Compound metabolized | Compound metabolized | Compound metabolized | CN1CCN(CC/C=C2/c3ccccc3Sc3ccc(S(=O)(=O)N(C)C)cc32)CC1 [THIOTHIXENE] | 
Compound NOT metabolized | Compound NOT metabolized | Compound metabolized | Compound metabolized | Compound metabolized | Compound NOT metabolized | Compound metabolized | Compound NOT metabolized | Compound metabolized | Compound metabolized | Compound NOT metabolized | Compound NOT metabolized | Compound NOT metabolized | Compound NOT metabolized | Compound metabolized | Compound metabolized | Compound NOT metabolized | Compound metabolized | CS(=O)(=O)O.O.O.O.O=C1Cc2cc(CCN3CCN(c4nsc5ccccc45)CC3)c(Cl)cc2N1 [ZIPRASIDONE MESYLATE] | 

Further lines, the compound ahead of its results:

SMILES | Bacterial Biotransformation [1] | Bacterial Biotransformation [2] | Bacterial Biotransformation [3] | Bacterial Biotransformation [4] | Bacterial Biotransformation [5] | Bacterial Biotransformation [7] | Bacterial Biotransformation [8] | Bacterial Biotransformation [9] | Bacterial Biotransformation [10] | Bacterial Biotransformation [11] | Bacterial Biotransformation [12] | Bacterial Biotransformation [13] | Bacterial Biotransformation [14] | Bacterial Biotransformation [15] | Bacterial Biotransformation [16] | Bacterial Biotransformation [17] | Bacterial Biotransformation [18] | Bacterial Biotransformation [19] | Bacterial Biotransformation [6]
C[C@@H]1CC[C@H]2[C@@H](C)C(=O)O[C@@H]3O[C@@]4(C)CC[C@@H]1[C@]32OO4 [ARTEMISININ] | Compound metabolized | Compound metabolized | Compound metabolized | Compound metabolized | Compound metabolized | Compound metabolized | Compound metabolized | Compound metabolized | Compound metabolized | Compound metabolized | Compound metabolized | Compound metabolized | Compound metabolized | Compound metabolized | Compound metabolized |  |  |  | Compound metabolized
OC(CCN1CCCCC1)(c1ccccc1)C1CC2C=CC1C2 (centres undefined) [BIPERIDEN] | Compound NOT metabolized | Compound NOT metabolized | Compound NOT metabolized | Compound metabolized | Compound metabolized | Compound metabolized | Compound NOT metabolized | Compound NOT metabolized | Compound NOT metabolized | Compound NOT metabolized | Compound metabolized | Compound NOT metabolized | Compound metabolized | Compound NOT metabolized | Compound metabolized | Compound NOT metabolized | Compound NOT metabolized | Compound NOT metabolized | 
C#C[C@]1(O)CC[C@H]2[C@@H]3CCC4=Cc5oncc5C[C@]4(C)[C@H]3CC[C@@]21C [DANAZOL] |  |  | Compound metabolized | Compound metabolized | Compound metabolized |  | Compound metabolized |  | Compound metabolized | Compound metabolized |  |  | Compound NOT metabolized | Compound metabolized |  |  |  |  | Compound metabolized
COC(=O)C1=C(C)NC(C)=C(C(=O)OC(C)C)C1c1cccc2nonc12 (centres undefined) [ISRADIPINE] | Compound metabolized | Compound metabolized | Compound metabolized | Compound metabolized | Compound metabolized | Compound metabolized | Compound metabolized | Compound NOT metabolized | Compound NOT metabolized |  | Compound metabolized | Compound metabolized | Compound metabolized | Compound metabolized | Compound metabolized | Compound metabolized | Compound NOT metabolized | Compound metabolized | 
CN(C(=O)CN(CCO)CC(=O)N(C)C(C)(C)Cc1ccccc1)C(C)(C)Cc1ccccc1 [OXETHAZAINE] | Compound metabolized | Compound metabolized | Compound metabolized | Compound metabolized | Compound metabolized | Compound metabolized | Compound metabolized | Compound metabolized | Compound metabolized | Compound metabolized | Compound metabolized | Compound metabolized | Compound metabolized | Compound metabolized | Compound metabolized | Compound metabolized | Compound NOT metabolized | Compound metabolized | 
